What was measured:
[1] = mn = molality of the nth substance listed, in mol/kg; conditions: 298.15 K, 101 kPa, Liquid, Vibrating tube method
[2] = cn = amount concentration of the nth substance listed, in mol/dm3; conditions: 101 kPa, Liquid, Alternating current cell with electrodes

CCOS(=O)(=O)[O-].CCn1cc[n+](C)c1 [1-ethyl-3-methylimidazolium ethyl sulfate] + CC#N
[1]
Conditions	mass density [kg/m3]
m1 = 0.006546	777.183
m1 = 0.1445	788.755

molar conductivity [S·m2/mol], [2]
Conditions	273.15 K	278.15 K	283.15 K	288.15 K	293.15 K	298.15 K	303.15 K	308.15 K	313.15 K
c1 = 0.3706	0.01282	0.01356	0.014309	0.015072	0.01584	0.01663	0.017423	0.018226	0.019045
c1 = 0.7493	0.01255	0.01327	0.014004	0.01475	0.0155	0.016262	0.01704	0.01782	0.01862
c1 = 1.176	0.012313	0.013021	0.01374	0.01447	0.015211	0.01596	0.01672	0.017492	0.018273
c1 = 1.698	0.012085	0.01278	0.013489	0.014207	0.01493	0.01567	0.016414	0.017171	0.01794
c1 = 2.185	0.01189	0.01258	0.013276	0.01398	0.0147	0.01542	0.016154	0.0169	0.01765
c1 = 2.695	0.01172	0.012392	0.013078	0.01377	0.01448	0.01519	0.01591	0.01664	0.017386
c1 = 3.269	0.01154	0.012206	0.01288	0.01357	0.014261	0.01496	0.01567	0.016396	0.017125
c1 = 3.882	0.011371	0.012029	0.0127	0.01337	0.014054	0.01475	0.015446	0.016155	0.01687
c1 = 4.671	0.01117	0.01182	0.01247	0.013136	0.01381	0.01449	0.015177	0.01588	0.01658
c1 = 5.374	0.011016	0.01165	0.0123	0.01295	0.01362	0.014287	0.01497	0.01566	0.01635
c1 = 5.987	0.01089	0.01152	0.012165	0.01281	0.01347	0.014134	0.0148	0.01549	0.016173
c1 = 6.546	0.01079	0.011417	0.012051	0.01269	0.013343	0.014	0.01467	0.015338	0.016021
